Legend:
[1] = Cytotoxicity, neutral red uptake assay, AGS; format: cell-based; conditions: human, AGS gastric epithelial cells, confluent monolayer, read-out: IC50 ± SD, cytotoxicity AGS
Method: (§1) Human lung fibroblasts MRC-5 (ATCC CCL-171) were grown in minimum essential Eagle medium (MEM) with Earles’s salts and 2 mM L-glutamine (Sigma-Aldrich Co.). Human epithelial gastric cells AGS (ATCC CRL-1739) were grown in Ham F-12 medium containing 1 mM L-glutamine. Both media were supplemented with 1.5 g/L sodium bicarbonate (Sigma-Aldrich Co.), 10% heat-inactivated fetal bovine serum (FBS), 100 IU/mL penicillin and 100 µg/mL streptomycin.Both cell lines were grown as monolayers in a humidified incubator with 5% CO2 in air at 37 °C. Culture media, antibiotics and FBS were obtained from Invitrogen Corp.
(§2) Cytotoxicity values were required as a reference to determine the working concentrations in the subsequent experiments. Briefly, confluent cultures of MRC-5 and AGS cells were treated during 24 h with medium containing the compounds at concentrations ranging from 0 up to 1,000 µM. The products were first dissolved in DMSO (1% final concentration) and then in the corresponding culture medium supplemented with 2% FBS. Untreated cells were used as controls. Cell viability was determined at the end of the incubation by means of the neutral red uptake (NRU) assay. Lansoprazole (Sigma-Aldrich Co., min. 98% by TLC) was used as reference compound.

[2] = system: HCl-EtOH-induced gastric lesions; set-up: method as in PMID 21996716; conditions: mice, orally, single dose of 5 mg/kg; cited from earlier work
AGS cells [3] = experiment: Cellular reduced glutathione (GSH) content of AGS cells; format: cell-based, human; conditions: 4 h; for GSH: post-confluent AGS, control 13.6 ± 0.7
Method: Untreated cells were used as controls. […] After incubation, the GSH content was determined using a colorimetric kit (BioAssays Systems, Hayward, CA, USA). Results are expressed as nanomol of soluble reduced sulfhydryls/10^6 cells.

AGS cells [4] = experiment: Prostaglandin E2 (PGE2) content of AGS cells; format: cell-based, human; conditions: 1 h; for PGE2: post-confluent AGS, control 52 ± 5
Method: One day after confluence, AGS cells were treated for 1 h with the compounds at 1/2 and 1/4 of the respective IC50 values. A control with medium only was included. Indomethacin (100 μM) was used as standard inhibitor of prostaglandin synthesis (Sigma-Aldrich Co., min. 99% by TLC). After incubation, PGE2 content was determined by means of a specific enzyme immunoassay kit (R & D Systems KGE004B, Minneapolis, MN, USA) and values were calculated according to the manufacturer instructions. Results are expressed as pg/well.

[5] = system: human erythrocyte membranes; experiment: Inhibition of lipoperoxidation in erythrocyte membranes; format: biochemical
[6] = Cytotoxicity, neutral red uptake assay, MRC-5; format: cell-based; conditions: human, MRC-5 lung fibroblasts, confluent monolayer, confluent MRC-5, 24 h, read-out: IC50 ± SD, cytotoxicity MRC-5
Method: as §1, §2

[7] = system: human erythrocyte membranes; experiment: Inhibition of lipoperoxidation in erythrocyte membranes; format: biochemical; conditions: at 100 µg/mL
Method: The inhibition of lipid peroxidation was determined using human erythrocyte membranes. The compounds were tested at 100 µg/mL.

In the case of C=C1CCC2[C@](C)(CCC[C@]2(C)C(=O)OC)[C@H]1CC[C@@H](C)CC(=O)OC1=C(CC=C(C)C)C(=O)c2ccccc2C1=O (stereo partly drawn) [Compound 8, Lapachoyl junicedrate methyl ester], the IC50 at 24 h [1] is given as over 1000 µM, the “gastroprotective effect in vivo” value [2] is given as “active” and the activation at 125 µM (AGS cells [3]; Homo sapiens, AGS, 125 µM, read-out: increase of GSH content compared to untreated controls) is given as 19%. For the same compound, the activation at 250 µM (AGS cells [3]; Homo sapiens, AGS, 250 µM, read-out: increase of GSH content compared to untreated controls) was 24%, the GSH (AGS cells [3]; 125 µM) was “* 16.2 ± 0.6 nmol/10^6 cells” and the GSH (AGS cells [3]; 250 µM) was “* 16.8 ± 0.9 nmol/10^6 cells”. For the same compound, the fold induction at 250 µM (AGS cells [4]; Homo sapiens, AGS, 250 µM, read-out: increase in PGE2 content) was 5.2, the fold induction at 500 µM (AGS cells [4]; Homo sapiens, AGS, 500 µM, read-out: increase in PGE2 content) was 15.2 and the PGE2 (AGS cells [4]; 250 µM) was 272 ± 30 pg/mL. For the same compound, the PGE2 (AGS cells [4]; 500 µM) was 787 ± 56 pg/mL, the “IC50, inhibition of the lipoperoxidation” value [5] was “IC50 81.4 ± 11.0 µg/mL” and the IC50 at 24 h [6] was over 1000 µM.
In the case of C=C1CCC2[C@](C)(CCC[C@]2(C)C(=O)O)[C@H]1CC[C@@H](C)CC(=O)OC1=C(CCC(C)C)C(=O)c2ccccc2C1=O (stereo partly drawn) [Compound 9, Dihydroprenyl lapachol junicedrate], the IC50 at 24 h [1] is listed as 49 ± 10 µM, the “gastroprotective effect in vivo” value [2] is listed as “significant activity” and the activation at 6 µM (AGS cells [3]; Homo sapiens, AGS, 6 µM, read-out: increase of GSH content compared to untreated controls) is listed as 15%. For the same compound, the activation at 12 µM (AGS cells [3]; Homo sapiens, AGS, 12 µM, read-out: increase of GSH content compared to untreated controls) was 16%, the GSH (AGS cells [3]; 6 µM) was “* 15.6 ± 0.6 nmol/10^6 cells” and the GSH (AGS cells [3]; 12 µM) was “* 15.8 ± 0.6 nmol/10^6 cells”. For the same compound, the fold induction at 12.5 µM (AGS cells [4]; Homo sapiens, AGS, 12.5 µM, read-out: increase in PGE2 content) was 5.9, the PGE2 (AGS cells [4]; 12.5 µM) was 309 ± 29 pg/mL and the “IC50, inhibition of the lipoperoxidation” value [5] was “IC50 40.1 ± 5.3 µg/mL”. For the same compound, the IC50 at 24 h [6] was 449 ± 27 µM.
For C=C1CCC2[C@](C)(CCC[C@]2(C)C(=O)OC)[C@H]1CC[C@@H](C)CC(=O)OC1=C(CCC(C)C)C(=O)c2ccccc2C1=O (stereo partly drawn) [Compound 10, Dihydroprenyl lapachoyl junicedrate methyl ester], the IC50 at 24 h [1] is given as 659 ± 42 µM, the “gastroprotective effect in vivo” value [2] is given as “significant activity” and the GSH (AGS cells [3]; 83 µM) is given as 13.4 ± 0.7 nmol/10^6 cells. For the same compound, the GSH (AGS cells [3]; 165 µM) was 13.0 ± 0.7 nmol/10^6 cells, the fold induction at 162 µM (AGS cells [4]; Homo sapiens, AGS, 162 µM, read-out: increase in PGE2 content) was 5.9 and the fold induction at 323 µM (AGS cells [4]; Homo sapiens, AGS, 323 µM, read-out: increase in PGE2 content) was 8.9. The PGE2 (AGS cells [4]; 162 µM) was 306 ± 32 pg/mL, the PGE2 (AGS cells [4]; 323 µM) was 465 ± 39 pg/mL and the “IC50, inhibition of the lipoperoxidation” value [5] was “IC50 99.4 ± 9.1 µg/mL”. The IC50 at 24 h [6] was over 1000 µM.
In the case of COC(=O)[C@@]1(C)CCC[C@]2(C)C(CC[C@@H](C)CC(=O)OC3=C(CC=C(C)C)C(=O)c4ccccc4C3=O)=C(C)CCC12 (stereo partly drawn) [Compound 20, Lapachoyl Δ8(9) junicedrate methyl ester], the IC50 at 24 h [1] is listed as 321 ± 24 µM, the “gastroprotective effect in vivo” value [2] is listed as “active” and the activation at 40 µM (AGS cells [3]; Homo sapiens, AGS, 40 µM, read-out: increase of GSH content compared to untreated controls) is listed as 19%. For the same compound, the activation at 80 µM (AGS cells [3]; Homo sapiens, AGS, 80 µM, read-out: increase of GSH content compared to untreated controls) was 13%, the GSH (AGS cells [3]; 40 µM) was “* 16.2 ± 1.0 nmol/10^6 cells” and the GSH (AGS cells [3]; 80 µM) was “* 15.4 ± 1.3 nmol/10^6 cells”. The “IC50, inhibition of the lipoperoxidation” value [5] was “IC50 58.1 ± 4.1 µg/mL” and the IC50 at 24 h [6] was 483 ± 31 µM.
In the case of COC(=O)[C@@]1(C)CCC[C@]2(C)C(CC[C@@H](C)CC(=O)OC3=C(CCC(C)C)C(=O)c4ccccc4C3=O)=C(C)CCC12 (stereo partly drawn) [Compound 22, Dihydroprenyl lapachoyl Δ8(9) junicedrate methyl ester], the IC50 at 24 h [1] is listed as 340 ± 20 µM, the “gastroprotective effect in vivo” value [2] is listed as “significant activity” and the GSH (AGS cells [3]; 43 µM) is listed as 13.6 ± 0.9 nmol/10^6 cells. For the same compound, the GSH (AGS cells [3]; 85 µM) was 14.2 ± 0.6 nmol/10^6 cells, the “% Inhibition of the lipoperoxidation” value [7] was 46% and the fold induction at 170 µM (AGS cells [4]; Homo sapiens, AGS, 170 µM, read-out: increase in PGE2 content) was 2.2. It also gave a PGE2 (AGS cells [4]; 170 µM) of 114 ± 11 pg/mL and an IC50 at 24 h [6] of 848 ± 51 µM.

From publication PMC6270338, “Diterpenylquinone Hybrids: Synthesis and Assessment of Gastroprotective Mechanisms of Action in Human Cells” (Molecules, 2013)
